The values that follow are results of earlier work, collected in patent EP3501609A1 (Zentiva K.S., priority 2017, dated 2019).

Each structure is given as a SMILES string.

Regarding `C=CC(=O)N1CCC[C@@H](n2nc(-c3ccc(Oc4ccccc4)cc3)c3c(N)ncnc32)C1` [ibrutinib form A], under “pH 1.2”, the solubility result is “poorly soluble”. Moreover, the solubility in water entry (pH range of 4.5-8) is given as “virtually insoluble”.
